Laboratory results: ChEMBL document CHEMBL1201862, “PubChem BioAssay data set” (2004)
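Dose response: 5 concentrations. Exposure: 48 h. Format: 96-well plates. Endpoint: linear interpolation; highest concentration if not reached. GI50 is the concentration that inhibits growth by half.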 Calls of active or inactive are those of the source. Cut-off read from the data, not from the text of the source: active = GI50 up to about 1.1 µM and inactive = higher.

Assays:
Assay in all cases: growth of human tumour cells (NCI), 48 h
CCRF-CEM = tested on: CCRF-CEM
786-0 = tested on: 786-0
MDA-MB-231 = tested on: MDA-MB-231
ACHN = tested on: ACHN
SW-620 = tested on: SW-620
RPMI-8226 = tested on: RPMI-8226
MOLT-4 = tested on: MOLT-4
SN12C = tested on: SN12C
SK-OV-3 = tested on: SK-OV-3
HCC 2998 = tested on: HCC 2998
U-251 = tested on: U-251
SK-MEL-28 = tested on: SK-MEL-28
A498 = tested on: A498
CAKI-1 = tested on: CAKI-1
UO-31 = tested on: UO-31
NCI-H226 = tested on: NCI-H226
SR = tested on: SR
NCI-H522 = tested on: NCI-H522
IGROV-1 = tested on: IGROV-1
BT-549 = tested on: BT-549
NCI-H460 = tested on: NCI-H460
UACC-257 = tested on: UACC-257
SNB-75 = tested on: SNB-75
DU-145 = tested on: DU-145
A549 = tested on: A549
HCT-15 = tested on: HCT-15
T47D = tested on: T47D
OVCAR-3 = tested on: OVCAR-3
SK-MEL-2 = tested on: SK-MEL-2
COLO 205 = tested on: COLO 205
SF-295 = tested on: SF-295
HT-29 = tested on: HT-29
TK-10 = tested on: TK-10
OVCAR-5 = tested on: OVCAR-5
UACC-62 = tested on: UACC-62
MCF7 = tested on: MCF7
RXF 393 = tested on: RXF 393
NCI/ADR-RES = tested on: NCI/ADR-RES
OVCAR-8 = tested on: OVCAR-8
HOP-62 = tested on: HOP-62
Hs-578T = tested on: Hs-578T
K562 = tested on: K562
LOX IMVI = tested on: LOX IMVI
OVCAR-4 = tested on: OVCAR-4
SF-268 = tested on: SF-268
MDA-N = tested on: MDA-N
EKVX = tested on: EKVX
M14 = tested on: M14
HL-60 = tested on: HL-60
HCT-116 = tested on: HCT-116
KM12 = tested on: KM12
SF-539 = tested on: SF-539
HOP-92 = tested on: HOP-92
Malme-3M = tested on: Malme-3M
PC-3 = tested on: PC-3
SK-MEL-5 = tested on: SK-MEL-5
NCI-H23 = tested on: NCI-H23
MDA-MB-435 = tested on: MDA-MB-435
SNB-19 = tested on: SNB-19

Structure (SMILES): c1ccc2c(c1)Nc1ccccc1[P+]21c2ccccc2Nc2ccccc21
- GI50 (CCRF-CEM): 158 nM (active)
- GI50 (786-0): 401 nM (active)
- GI50 (MDA-MB-231): 212 nM (active)
- GI50 (ACHN): 1860 nM (inactive)
- GI50 (SW-620): 279 nM (active)
- GI50 (RPMI-8226): 31.4 nM (active)
- GI50 (MOLT-4): 52.5 nM (active)
- GI50 (SN12C): 130 nM (active)
- GI50 (SK-OV-3): 267 nM (active)
- GI50 (HCC 2998): 313 nM (active)
- GI50 (U-251): 230 nM (active)
- GI50 (SK-MEL-28): 244 nM (active)
- GI50 (A498): 318 nM (active)
- GI50 (CAKI-1): 1610 nM (inactive)
- GI50 (UO-31): 5460 nM (inactive)
- GI50 (NCI-H226): 96.4 nM (active)
- GI50 (SR): 238 nM (active)
- GI50 (NCI-H522): 179 nM (active)
- GI50 (IGROV-1): 270 nM (active)
- GI50 (BT-549): 153 nM (active)
- GI50 (NCI-H460): 146 nM (active)
- GI50 (UACC-257): 214 nM (active)
- GI50 (SNB-75): 46.6 nM (active)
- GI50 (DU-145): 318 nM (active)
- GI50 (A549): 182 nM (active)
- GI50 (HCT-15): 5730 nM
- GI50 (T47D): 110 nM (active)
- GI50 (OVCAR-3): 195 nM (active)
- GI50 (SK-MEL-2): 199 nM (active)
- GI50 (COLO 205): 48 nM (active)
- GI50 (SF-295): 1300 nM (inactive)
- GI50 (HT-29): 85.3 nM (active)
- GI50 (TK-10): 581 nM (active)
- GI50 (OVCAR-5): 281 nM (active)
- GI50 (UACC-62): 143 nM (active)
- GI50 (MCF7): 489 nM (active)
- GI50 (RXF 393): 303 nM (active)
- GI50 (NCI/ADR-RES): 69200 nM (inactive)
- GI50 (OVCAR-8): 368 nM (active)
- GI50 (HOP-62): 313 nM (active)
- GI50 (Hs-578T): 72.3 nM (active)
- GI50 (K562): 212 nM (active)
- GI50 (LOX IMVI): 587 nM (active)
- GI50 (OVCAR-4): 447 nM (active)
- GI50 (SF-268): 383 nM (active)
- GI50 (MDA-N): 270 nM (active)
- GI50 (EKVX): 312 nM (active)
- GI50 (M14): 351 nM (active)
- GI50 (HL-60): 251 nM (active)
- GI50 (HCT-116): 151 nM (active)
- GI50 (KM12): 84.5 nM (active)
- GI50 (SF-539): 156 nM (active)
- GI50 (HOP-92): 123 nM (active)
- GI50 (Malme-3M): 207 nM (active)
- GI50 (PC-3): 169 nM (active)
- GI50 (SK-MEL-5): 165 nM (active)
- GI50 (NCI-H23): 175 nM (active)
- GI50 (MDA-MB-435): 284 nM (active)
- GI50 (SNB-19): 299 nM (active)
